ChEMBL document CHEMBL1134578, “X-Ray crystal structures of Candida albicans dihydrofolate reductase: high resolution ternary complexes in which the dihydronicotinamide moiety of NADPH is displaced by an inhibitor” (J Med Chem, 2001)

Columns and labels:
Dihydrofolate reductase [1] = target: T1, Dihydrofolate reductase (Homo sapiens, UniProt P00374); assay: Inhibitory activity against recombinant human dihydrofolate reductase
T1 sequence (P00374 whole entry): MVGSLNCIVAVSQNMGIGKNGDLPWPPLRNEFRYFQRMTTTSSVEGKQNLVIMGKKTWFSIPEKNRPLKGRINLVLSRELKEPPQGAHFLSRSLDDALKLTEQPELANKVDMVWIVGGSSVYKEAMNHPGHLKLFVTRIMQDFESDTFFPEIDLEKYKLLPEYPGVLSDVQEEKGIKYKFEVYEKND

[2] = Selective ratio of Human / Candida albicans was determined
Dihydrofolate reductase [3] = target: T2, Dihydrofolate reductase (Candida albicans, UniProt P22906); assay: Inhibitory activity against Candida albicans Dihydrofolate Reductase (DHFR)
T2 sequence (P22906 whole entry): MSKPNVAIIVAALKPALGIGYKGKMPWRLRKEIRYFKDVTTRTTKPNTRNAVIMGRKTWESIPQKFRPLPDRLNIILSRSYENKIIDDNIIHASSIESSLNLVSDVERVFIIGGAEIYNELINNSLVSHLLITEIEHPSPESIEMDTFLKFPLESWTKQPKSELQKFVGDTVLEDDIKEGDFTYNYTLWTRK

IC50 (Dihydrofolate reductase [1]): 6.6 nM
SI [2]: 1.7
IC50 (Dihydrofolate reductase [3]): 4 nM
Compound: CCC(CC)n1ccc2c3c(N)nc(N)nc3ccc21
